≈ marks a conversion by molar mass, not a printed value.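 Five concentrations, 48 hours, 96-well plates. GI50: concentration for 50% inhibition of growth. Definition used: TGI = concentration required for complete inhibition of growth.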
Columns and labels:
Experiment in all cases: growth of human tumour cells (NCI), 48 h
786-0 renal = test system: 786-0 renal
A498 renal = test system: A498 renal
A549 NSCLC = test system: A549 NSCLC
ACHN renal = test system: ACHN renal
BT-549 breast = test system: BT-549 breast
CAKI-1 renal = test system: CAKI-1 renal
COLO 205 colon = test system: COLO 205 colon
DU-145 prostate = test system: DU-145 prostate
EKVX NSCLC = test system: EKVX NSCLC
HCC-2998 colon = test system: HCC-2998 colon
HCT-116 colon = test system: HCT-116 colon
HCT-15 colon = test system: HCT-15 colon
HOP-62 NSCLC = test system: HOP-62 NSCLC
HOP-92 NSCLC = test system: HOP-92 NSCLC
HS 578T breast = test system: HS 578T breast
HT29 colon = test system: HT29 colon
IGROV1 ovarian = test system: IGROV1 ovarian
K-562 leukemia = test system: K-562 leukemia
LOX IMVI melanoma = test system: LOX IMVI melanoma
M14 melanoma = test system: M14 melanoma
MALME-3M melanoma = test system: MALME-3M melanoma
MCF7 breast = test system: MCF7 breast
MDA-MB-231 breast = test system: MDA-MB-231 breast
MDA-N = test system: MDA-N
MOLT-4 leukemia = test system: MOLT-4 leukemia
NCI-H226 lung = test system: NCI-H226 lung
NCI-H460 lung = test system: NCI-H460 lung
NCI-H522 lung = test system: NCI-H522 lung
NCI/ADR-RES ovarian = test system: NCI/ADR-RES ovarian
OVCAR-3 ovarian = test system: OVCAR-3 ovarian
OVCAR-4 ovarian = test system: OVCAR-4 ovarian
OVCAR-5 ovarian = test system: OVCAR-5 ovarian
OVCAR-8 ovarian = test system: OVCAR-8 ovarian
PC-3 prostate = test system: PC-3 prostate
RXF 393 renal = test system: RXF 393 renal
SF-268 CNS = test system: SF-268 CNS
SF-295 CNS = test system: SF-295 CNS
SF-539 CNS = test system: SF-539 CNS
SK-MEL-2 melanoma = test system: SK-MEL-2 melanoma
SK-MEL-5 melanoma = test system: SK-MEL-5 melanoma
SK-OV-3 ovarian = test system: SK-OV-3 ovarian
SN12C renal = test system: SN12C renal
SNB-19 CNS = test system: SNB-19 CNS
SW-620 colon = test system: SW-620 colon
TK-10 renal = test system: TK-10 renal
U251 CNS = test system: U251 CNS
UACC-62 melanoma = test system: UACC-62 melanoma
UO-31 renal = test system: UO-31 renal
CCRF-CEM leukemia = test system: CCRF-CEM leukemia
HL-60(TB) leukemia = test system: HL-60(TB) leukemia
KM12 colon = test system: KM12 colon
MDA-MB-435 = test system: MDA-MB-435
NCI-H23 lung = test system: NCI-H23 lung
RPMI-8226 leukemia = test system: RPMI-8226 leukemia
SK-MEL-28 melanoma = test system: SK-MEL-28 melanoma
SNB-75 CNS = test system: SNB-75 CNS
SR leukemia = test system: SR leukemia
T-47D breast = test system: T-47D breast
UACC-257 melanoma = test system: UACC-257 melanoma

Q: Which results are given for `N#Cc1c(-c2ccc(Cl)cc2)c2c(N=Nc3c(O)ccc4ccccc34)[nH]nc2[nH]c1=O`?
A: TGI (786-0 renal): 2.04 µM; TGI (A498 renal): 0.468 µM; TGI (A549 NSCLC): 2.3 µM; TGI (ACHN renal): 0.492 µM; TGI (BT-549 breast): 0.619 µM; TGI (CAKI-1 renal): 1.26 µM; TGI (COLO 205 colon): 2.66 µM; TGI (DU-145 prostate): 1.07 µM; TGI (EKVX NSCLC): 2.19 µM; TGI (HCC-2998 colon): 0.89 µM; TGI (HCT-116 colon): 1.62 µM; TGI (HCT-15 colon): 2.09 µM; TGI (HOP-62 NSCLC): 1.82 µM; TGI (HOP-92 NSCLC): 0.865 µM; TGI (HS 578T breast): 3.96 µM; TGI (HT29 colon): 1.87 µM; TGI (IGROV1 ovarian): 1.14 µM; TGI (K-562 leukemia): > 20.7 µM; TGI (LOX IMVI melanoma): 0.439 µM; TGI (M14 melanoma): 0.563 µM; TGI (MALME-3M melanoma): 0.944 µM; TGI (MCF7 breast): 0.982 µM; TGI (MDA-MB-231 breast): 1.08 µM; TGI (MDA-N): 2.08 µM; TGI (MOLT-4 leukemia): 1.34 µM; TGI (NCI-H226 lung): 1.93 µM; TGI (NCI-H460 lung): 0.851 µM; TGI (NCI-H522 lung): 0.823 µM; TGI (NCI/ADR-RES ovarian): 0.777 µM; TGI (OVCAR-3 ovarian): 0.0736 µM; TGI (OVCAR-4 ovarian): 3.68 µM; TGI (OVCAR-5 ovarian): 2.73 µM; TGI (OVCAR-8 ovarian): 1.21 µM; TGI (PC-3 prostate): 2.05 µM; TGI (RXF 393 renal): 0.878 µM; TGI (SF-268 CNS): 1.66 µM; TGI (SF-295 CNS): 1.18 µM; TGI (SF-539 CNS): 1.37 µM; TGI (SK-MEL-2 melanoma): 0.943 µM; TGI (SK-MEL-5 melanoma): 1.62 µM; TGI (SK-OV-3 ovarian): 1.58 µM; TGI (SN12C renal): 2.05 µM; TGI (SNB-19 CNS): 1.91 µM; TGI (SW-620 colon): 2.31 µM; TGI (TK-10 renal): 1.8 µM; TGI (U251 CNS): 1.56 µM; TGI (UACC-62 melanoma): 0.324 µM; TGI (UO-31 renal): 1.05 µM

Q: `O=C1CSC2=NC3=C(CSC/C3=C\c3ccccc3)C(c3ccccc3)N12` (stereo not drawn) was tested. Which TGI (786-0 renal) did it give?
A: > 100 µM

Q: And the TGI (A549 NSCLC)?
A: > 100 µM

Q: What about the TGI (ACHN renal) of the same compound?
A: > 100 µM

Q: What about the TGI (CCRF-CEM leukemia) of the same compound?
A: > 100 µM

Q: And the TGI (COLO 205 colon)?
A: > 100 µM

Q: And the TGI (DU-145 prostate)?
A: > 100 µM

Q: What about the TGI (EKVX NSCLC) of the same compound?
A: > 100 µM

Q: What about the TGI (HCC-2998 colon) of the same compound?
A: > 100 µM

Q: And the TGI (HCT-116 colon)?
A: > 100 µM

Q: What about the TGI (HCT-15 colon) of the same compound?
A: > 100 µM

Q: What about the TGI (HL-60(TB) leukemia) of the same compound?
A: > 100 µM

Q: And the TGI (HOP-62 NSCLC)?
A: > 100 µM

Q: And the TGI (HOP-92 NSCLC)?
A: > 100 µM

Q: And the TGI (HS 578T breast)?
A: > 100 µM

Q: And the TGI (HT29 colon)?
A: > 100 µM

Q: What about the TGI (IGROV1 ovarian) of the same compound?
A: > 100 µM

Q: What about the TGI (K-562 leukemia) of the same compound?
A: > 100 µM

Q: What about the TGI (KM12 colon) of the same compound?
A: > 100 µM

Q: What about the TGI (LOX IMVI melanoma) of the same compound?
A: > 100 µM

Q: And the TGI (M14 melanoma)?
A: > 100 µM

Q: And the TGI (MALME-3M melanoma)?
A: > 100 µM

Q: What about the TGI (MCF7 breast) of the same compound?
A: > 100 µM

Q: And the TGI (MDA-MB-231 breast)?
A: > 100 µM

Q: What about the TGI (MDA-MB-435) of the same compound?
A: > 100 µM

Q: And the TGI (MDA-N)?
A: > 100 µM

Q: And the TGI (MOLT-4 leukemia)?
A: > 100 µM

Q: What about the TGI (NCI-H226 lung) of the same compound?
A: > 100 µM

Q: And the TGI (NCI-H23 lung)?
A: > 100 µM

Q: And the TGI (NCI-H460 lung)?
A: > 100 µM

Q: What about the TGI (NCI/ADR-RES ovarian) of the same compound?
A: > 100 µM

Q: And the TGI (OVCAR-3 ovarian)?
A: > 100 µM

Q: What about the TGI (OVCAR-4 ovarian) of the same compound?
A: > 100 µM

Q: What about the TGI (OVCAR-5 ovarian) of the same compound?
A: > 100 µM

Q: And the TGI (OVCAR-8 ovarian)?
A: > 100 µM

Q: And the TGI (PC-3 prostate)?
A: > 100 µM

Q: What about the TGI (RPMI-8226 leukemia) of the same compound?
A: > 100 µM

Q: And the TGI (SF-268 CNS)?
A: > 100 µM

Q: And the TGI (SF-295 CNS)?
A: > 100 µM

Q: What about the TGI (SF-539 CNS) of the same compound?
A: > 100 µM

Q: What about the TGI (SK-MEL-2 melanoma) of the same compound?
A: > 100 µM

Q: And the TGI (SK-MEL-28 melanoma)?
A: > 100 µM

Q: What about the TGI (SK-MEL-5 melanoma) of the same compound?
A: > 100 µM

Q: What about the TGI (SK-OV-3 ovarian) of the same compound?
A: > 100 µM

Q: What about the TGI (SN12C renal) of the same compound?
A: > 100 µM

Q: And the TGI (SNB-75 CNS)?
A: > 100 µM

Q: And the TGI (SR leukemia)?
A: > 100 µM

Q: And the TGI (SW-620 colon)?
A: > 100 µM

Q: What about the TGI (T-47D breast) of the same compound?
A: > 100 µM

Q: What about the TGI (TK-10 renal) of the same compound?
A: > 100 µM

Q: And the TGI (U251 CNS)?
A: > 100 µM

Q: And the TGI (UACC-257 melanoma)?
A: > 100 µM

Q: What about the TGI (UACC-62 melanoma) of the same compound?
A: > 100 µM

Q: What about the TGI (UO-31 renal) of the same compound?
A: > 100 µM

Q: Which results are given for `CC(=O)OCCOCN1C(=O)NC(=O)/C(=C/c2cccc(OCc3ccccc3)c2)C1=O`?
A: GI50 (786-0 renal): 62.1 µg/mL (≈ 142 µM); GI50 (CCRF-CEM leukemia): 25 µg/mL (≈ 56.9 µM); TGI (CCRF-CEM leukemia): 58.1 µg/mL; GI50 (DU-145 prostate): 66 µg/mL (≈ 151 µM); GI50 (HCT-116 colon): 47.8 µg/mL (≈ 109 µM); GI50 (HL-60(TB) leukemia): 15 µg/mL (≈ 34.2 µM); TGI (HL-60(TB) leukemia): 48.6 µg/mL; GI50 (HT29 colon): 48 µg/mL (≈ 110 µM); GI50 (IGROV1 ovarian): 33.6 µg/mL (≈ 76.7 µM); GI50 (K-562 leukemia): 34.9 µg/mL (≈ 79.7 µM); GI50 (LOX IMVI melanoma): 35.7 µg/mL (≈ 81.4 µM); GI50 (M14 melanoma): 55.4 µg/mL (≈ 126 µM); GI50 (MCF7 breast): 42.5 µg/mL (≈ 97 µM); GI50 (MDA-MB-231 breast): 94.7 µg/mL (≈ 216 µM); GI50 (MDA-MB-435): 63.6 µg/mL (≈ 145 µM); GI50 (MDA-N): 29.4 µg/mL (≈ 67.1 µM); GI50 (MOLT-4 leukemia): 35.3 µg/mL (≈ 80.5 µM); GI50 (NCI/ADR-RES ovarian): 19.9 µg/mL (≈ 45.4 µM); TGI (NCI/ADR-RES ovarian): 45.4 µg/mL; GI50 (OVCAR-3 ovarian): 50.3 µg/mL (≈ 115 µM); GI50 (OVCAR-8 ovarian): 37.9 µg/mL (≈ 86.6 µM); GI50 (RPMI-8226 leukemia): 29.1 µg/mL (≈ 66.4 µM); TGI (RPMI-8226 leukemia): 73.2 µg/mL; GI50 (SF-539 CNS): 23.4 µg/mL (≈ 53.3 µM); TGI (SF-539 CNS): 79.1 µg/mL; GI50 (SK-MEL-5 melanoma): 33.5 µg/mL (≈ 76.3 µM); GI50 (SN12C renal): 66 µg/mL (≈ 151 µM); GI50 (SW-620 colon): 68.1 µg/mL (≈ 155 µM); GI50 (T-47D breast): 73.9 µg/mL (≈ 169 µM); GI50 (U251 CNS): 55.7 µg/mL (≈ 127 µM); GI50 (UACC-62 melanoma): 48.5 µg/mL (≈ 111 µM); GI50 (UO-31 renal): 65.9 µg/mL (≈ 150 µM)

Reference: PubChem BioAssay (NCI)
